Reference: ChEMBL document CHEMBL5729352, “Broad spectrum antiviral compositions and methods” (2022)

Test: Assessing Antiviral Activity Against Human Cytomegalovirus (HCMV): To assess their antiviral activity, some compounds were tested against human cytomegalovirus (HCMV) in vitro. Human […] cells were grown to confluency (˜1.0×10^4 cells/well) in 96-well plate format in Dulbecco's Modified Eagle Medium (DMFM) supplemented with 10% fetal bovine serum (FBS) 2 mM L-glutamine, 0.1 mM non-essential amino acids, 10 mM HEPES, and 100 U/ml each of penicillin and streptomycin and infected with an HCMV variant expressing mCherry tagged pUL99 (the product of late viral UL99 gene) at a multiplicity of 0.01 infectious unit (IU) per cell. Assays were performed in triplicate. One hour later, medium of the cells was replaced with fresh medium containing the indicated compounds at 25, 12.5, 6.25, 3.13, 1.56, 0.78, 0.39 μM or the carrier in which the compounds are dissolved (DMSO). Final concentration of DMSO was 0.5% in each treatment. Virus yield in the culture was determined at 7 days post infection by quantification of fluorescent (mCherry positive) cells in each well by fluorescent microscopy. Results were plotted using CDD Vault (CDD Vault was developed by Collaborative Drug Discovery, Inc., 1633 Bayshore Hwy, Suite 342, Burlingame, Calif. 94010) in order to calculate IC50s.
Type: cell-based

Work on `NC(=O)c1cccc(Cc2cnc(N3CCc4cc5c(cc4C3)OCCO5)s2)c1` yielded an IC50 of 8.63 µM.
